Structures are written as SMILES.

This data set in a line: Hydrophobicity was determined. It is filed as ADME.

As to `CC(C)(C)c1cc(NC(=O)CCCCCCCCC(=O)O)c(O)c(C(C)(C)C)c1`, the “k'” value turned out to be 0.38. The value for `COCCCCCCCCCCCC(=O)Nc1cc(C(C)(C)C)cc(C(C)(C)C)c1O` was 6.39; that for `CCCCCCCCCCCC(=O)Nc1cc(C(C)(C)C)cc(C(C)(C)C)c1O` was 12.6; that for `CCCCCCCCCC(=O)Nc1cc(C(C)(C)C)cc(C(C)(C)C)c1O` was 7.13. With `CCCCCCCCCCCCCC(=O)Nc1cc(C(C)(C)C)cc(C(C)(C)C)c1O`, the “k'” value is 25.2.

The record behind these values is ChEMBL document CHEMBL1136662, “Synthesis and properties of 11-(3,5-di-tert-butyl-2-hydroxyphenylcarbamoyl)undecanoic acid, a new amphiphilic antioxidant” (Bioorg Med Chem Lett, 2003).
